Experimental data as given in the NIST ThermoML archive (doi:10.1016/j.jct.2013.12.010).

Experiment: cn = amount concentration of the nth substance listed, in mol/dm3
Conditions: 298.15 K, 101 kPa, Liquid, Taylor dispersion method

Row | SMILES | binary diffusion coefficient (c1 = 0.005) [m2/s] | binary diffusion coefficient (c1 = 0.1) [m2/s]
1 | N[C@@H](Cc1ccc(O)c(O)c1)C(=O)O [L-3,4-dihydroxyphenylalanine] + O | 6.2e-10 | 
2 | Cl [hydrogen chloride] + O | 2.99e-09 | 2.9e-09
